The values below come from patent EP2253617A1, “Halogenated compounds as pesticides” (Bayer CropScience AG, priority 2009, dated 2010).

Like-named read-outs stand apart in the source and are kept apart here.

Series [1] in a line: physchem.
Series [2] relates to Phaedon cochleariae. Briefly: Phaedon test (PHAECO spray treatment). Particulars: sprayed Chinese cabbage leaf discs, larvae, after 7 days, 100 % = all beetle larvae killed. The format is in vivo. An excerpt: Phaedon-Test (PHAECO Spritzbehandlung)
(§1) • Lösungsmittel: 78,0 GewichtsteileAceton 1,5 Gewichtsteile Dimethylformamid • Emulgator: 0,5 Gewichtsteile Alkylarylpolyglykolether
(§2) Zur Herstellung einer zweckmäßigen Wirkstoffzubereitung vermischt man 1 Gewichtsteil Wirkstoff mit den angegebenen Mengen Lösungsmittel und Emulgator und verdünnt das Konzentrat mit emulgatorhaltigem Wasser auf die gewünschte Konzentration.
Chinakohlblattscheiben (Brassica pekinensis) werden mit einer Wirkstoffzubereitung der gewünschten Konzentration gespritzt und nach dem Abtrocknen mit Larven des Meerrettichblattkäfers (Phaedon cochleariae) besetzt.
Nach 7 Tagen wird die Wirkung in % bestimmt. Dabei bedeutet 100 %, dass alle Käferlarven abgetötet wurden; 0 % bedeutet, dass keine Käferlarven abgetötet wurden.

A short description of series [3]: physchem. This is another data set of the same source.
The subject of series [4] is Spodoptera frugiperda. In words: Spodoptera frugiperda test (SPODFR spray treatment). The class given is in vivo. Particulars: 500 g/ha, sprayed maize leaf discs, caterpillars, after 7 days; 100 % = all caterpillars killed.
Excerpt: Spodoptera frugiperda-Test (SPODFR Spritzbehandlung)
as §1, §2
Maisblattscheiben (Zea mays) werden mit einer Wirkstoffzubereitung der gewünschten Konzentration gespritzt und nach dem Abtrocknen mit Raupen des Heerwurms (Spodoptera frugiperda) besetzt.Nach 7 Tagen wird die Wirkung in % bestimmt. Dabei bedeutet 100 %, dass alle Raupen abgetötet wurden; 0 % bedeutet, dass keine Raupe abgetötet wurde.

The test system of series [5] is Tetranychus urticae. The class given is in vivo. Particulars: foliar, 144 h.
Excerpt: Tetranychus-Test, OP-resistent (TETRUR Spritzbehandlung)
as §1, §2
Bohnenblattscheiben (Phaseolus vulgaris), die von allen Stadien der Gemeinen Spinnmilbe (Tetranychus urticae) befallen sind, werden mit einer Wirkstoffzubereitung der gewünschten Konzentration gespritzt.
Nach 6 Tagen wird die Wirkung in % bestimmt. Dabei bedeutet 100 %, dass alle Spinnmilben abgetötet wurden; 0 % bedeutet, dass keine Spinnmilben abgetötet wurden.

Series [6] relates to Ctenocephalides felis. In words: Ctenocephalides felis oral test (CTECFE). The class given is in vivo. Particulars: 100 ppm in citrated cattle blood, oral uptake, adult fleas, after 2 days; 100 % = all fleas killed. How it is done:
Ctenocephalides felis oral (CTECFE)
Lösungsmittel: 1 Gewichtsteil Dimethylsulfoxid
Zwecks Herstellung einer zweckmäßigen Wirkstoffzubereitung vermischt man 10 mg Wirkstoff mit 0,5 ml Dimethylsulfoxid. Ein Teil des Konzentrats wird mit citriertem Rinderblut verdünnt und die gewünschte Konzentration hergestellt.
20 nüchterne adulte Flöhe (Ctenocephalides felis) werden in eine Kammer eingesetzt, die oben und unten mit Gaze verschlossen ist. Auf die Kammer wird ein Metallzylinder gestellt, dessen Unterseite mit Parafilm verschlossen ist. Der Zylinder enthält die Blut-Wirkstoffzubereitung, die von den Flöhen durch die Parafilmmembran aufgenommen werden kann. Nach 2 Tagen wird die Abtötung in % bestimmt. Dabei bedeutet 100 %, dass alle Flöhe abgetötet wurden; 0 % bedeutet, dass kein Floh abgetötet wurde.

As for `Cc1nc(C(F)(F)F)ccc1C(=O)Nc1ccc(Cl)c(C(=O)Nc2cccc(Cl)c2)c1` [Ia-9], in series [1], the chromatographic logP – broadly, a lipophilicity value derived from retention on a column – worked out at 3.6. The compound further displayed a Wirkung in series [2] (500 g/ha) of 80%.
Regarding `Cn1nc(C(F)(F)C(F)(F)F)c(C(F)(F)F)c1C(=O)Nc1ccc(Cl)c(C(=O)Nc2ccc(F)c(C(F)(F)F)c2)c1` [Ia-39], the chromatographic logP in series [3] came out at 4.51. The Wirkung in series [4] and in series [2] (500 g/ha) was 100% each time.
Compound `Cn1nc(C(F)(F)F)c(Br)c1C(=O)Nc1ccc(Cl)c(C(=O)Nc2ccc(Cl)nc2)c1` [Ia-7] had a chromatographic logP in series [1] of 3.42. The figures for the Wirkung in series [5] (100 g/ha) and in series [2] (100 g/ha) were 80% and 100%, respectively.
As to `Cc1cc(NC(=O)c2cc(NC(=O)c3c(C(F)(F)F)c(C(F)(F)C(F)(F)F)nn3C)ccc2Cl)c(Cl)cc1F` [Ia-41], in series [3], the chromatographic logP was determined as 4.64. The same compound yielded a Wirkung in series [2] (500 g/ha) of 100%.
`Cn1nc(C(F)(F)C(F)(F)F)c(C(F)(F)F)c1C(=O)Nc1ccc(Cl)c(C(=O)Nc2ccc(Cl)c(Cl)c2)c1` [Ia-42, N-{4-Chlor-3-[(3,4-dichlorphenyl)carbamoyl]phenyl}-1-methyl-3-(pentafluorethyl)-4-(trifluormethyl)-1H-pyrazol-5-carboxamid] had a chromatographic logP in series [3] of 4.65. In addition, the Wirkung in series [4] and in series [2] (500 g/ha) was 100% each time.
In series [3], `Cn1nc(C(F)(F)C(F)(F)F)c(C(F)(F)F)c1C(=O)Nc1ccc(Cl)c(C(=O)Nc2ccccc2Cl)c1` [Ia-31] returned a chromatographic logP of 4.28. The Wirkung in series [4] and in series [2] (500 g/ha) was 100% each time. The “Wirkung (Abtötung in %)” value in series [6] worked out at 95%.
Consider `Cn1nc(C(F)(F)C(F)(F)F)c(C(F)(F)F)c1C(=O)Nc1ccc(Cl)c(C(=O)Nc2cccc(Cl)n2)c1` [Ia-19], for which the chromatographic logP in series [3] came out at 3.94. For the same compound, the Wirkung in series [5] (500 g/ha), in series [4] and in series [2] (500 g/ha) was 100% in each case.
For `O=C(Nc1ccc(F)cc1)c1cc(NC(=O)c2cnc(C(F)(F)C(F)(F)F)nc2C(F)(F)F)ccc1Cl` [Ia-20], in series [1], the chromatographic logP is 3.98. Also, the Wirkung in series [4] and in series [2] (500 g/ha) was 100% each time.
Take `Cn1nc(C(F)(F)C(F)(F)F)c(C(F)(F)F)c1C(=O)Nc1ccc(Cl)c(C(=O)Nc2cccnc2Cl)c1` [Ia-13]: the chromatographic logP in series [3] stood at 3.73. Moreover, the Wirkung in series [5] (500 g/ha) turned out to be 90%; in series [4], 100%; in series [2] (500 g/ha), 100%.
In the case of `Cn1nc(C(F)(F)C(F)(F)F)c(C(F)(F)F)c1C(=O)Nc1ccc(Br)c(C(=O)Nc2ccc(F)cc2)n1` [Ic-1, N-[3-Brom-2-(4-fluor-phenylcarbamoyl)pyrid-6-yl]-1-methyl-3-(pentafluorethyl)-4-(trifluormethyl)-1H-pyrazol-5-carbonsäureamid], in series [1], the chromatographic logP was 4.45. For the same compound, the Wirkung in series [4] and in series [2] (500 g/ha) was 100% throughout.
Compound `Cc1cc(F)ccc1NC(=O)c1cc(NC(=O)c2c(C(F)(F)F)c(C(F)(F)C(F)(F)F)nn2C)ccc1Cl` [Ia-23] registered a chromatographic logP in series [3] of 4.05. Besides, the Wirkung is given as 90% in series [5] (500 g/ha), 100% in series [4] and 100% in series [2] (500 g/ha).
In series [3], `Cn1nc(C(F)(F)C(F)(F)F)c(C(F)(F)F)c1C(=O)Nc1ccc(Cl)c(C(=O)Nc2cc(Cl)c(Cl)c(Cl)c2)c1` [Ia-44] had a chromatographic logP of 5.15. In addition, the Wirkung in series [4] and in series [2] (500 g/ha) was 100% throughout.
The compound `Cc1c(NC(=O)c2cc(NC(=O)c3c(C(F)(F)F)c(C(F)(F)C(F)(F)F)nn3C)ccc2Cl)ccc(F)c1Cl` [Ia-33] yielded a chromatographic logP in series [3] of 4.34. The Wirkung in series [5] (500 g/ha) is listed as 90%; in series [4], 100%; in series [2] (500 g/ha) it was 100%.
`Cn1nc(Cn2nc(C(F)(F)C(F)(F)F)cc2C(F)(F)C(F)(F)F)c(C(F)(F)F)c1C(=O)Nc1ccc(Cl)c(C(=O)Nc2ccc(F)cc2)c1` [Ia-43] showed a chromatographic logP in series [1] of 4.99. For the same compound, the Wirkung in series [4] and in series [2] (500 g/ha) was 100% each time.
Compound `O=C(Nc1ccc(Cl)c(C(=O)Nc2ccc(F)cc2)c1)c1csc(C(F)(F)F)n1` [Ia-5] yielded a chromatographic logP in series [1] of 3.35.
`O=C(Nc1ccc(F)cc1)c1cc(NC(=O)c2cnc(C(F)(F)C(F)(F)F)nc2C(F)(F)C(F)(F)F)ccc1Cl` [Ia-34]: in series [1], the chromatographic logP was found to be 4.36. Besides, the Wirkung in series [5] (500 g/ha) was 80%; in series [4] it was 100%; in series [2] (500 g/ha), 100%.
With `Cn1nc(C(F)(F)C(F)(F)F)c(C(F)(F)F)c1C(=O)Nc1ccc(Cl)c(C(=O)Nc2cnccc2Cl)c1` [Ia-4], the chromatographic logP in series [3] is 3.33. The Wirkung is reported as 80% in series [4] and 100% in series [2] (500 g/ha).
As to `O=C(Nc1cccc(Cl)c1)c1cc(NC(=O)c2cnc(C(F)(F)C(F)(F)F)nc2C2CC2)ccc1Cl` [Ia-40], the chromatographic logP in series [1] was determined as 4.54. Further, the Wirkung in series [4] came to 100%.
`Cc1nc(C(F)(F)F)ccc1C(=O)Nc1ccc(Cl)c(C(=O)Nc2ccc(F)cc2)c1` [Ia-3, N-{4-Chlor-3-[(4-fluorphenyl)carbamoyl]phenyl}-2-methyl-6-(trifluormethyl)nicotinamid]: the chromatographic logP in series [1] amounted to 3.15. Moreover, the Wirkung in series [4] and in series [2] (500 g/ha) was 100% each time.
As to `Cn1nc(C(F)(F)C(F)(F)F)c(C(F)(F)F)c1C(=O)Nc1ccc(Cl)c(C(=O)Nc2ccc(Cl)cn2)c1` [Ia-27], the chromatographic logP in series [3] worked out at 4.17. For the same compound, the Wirkung in series [4] and in series [2] (500 g/ha) was 100% throughout.
In turn, `Cn1nc(C(F)(F)C(F)(F)F)c(C(F)(F)F)c1C(=O)Nc1ccc(Cl)c(C(=O)Nc2cccc(C(F)(F)F)c2)c1` [Ia-37] gave a chromatographic logP in series [3] of 4.4. Besides, the Wirkung in series [4] and in series [2] (500 g/ha) was 100% in each case.
For the compound `Cn1nc(C(F)(F)C(F)(F)F)c(C(F)(F)F)c1C(=O)Nc1ccc(Cl)c(C(=O)Nc2ccncc2)c1` [Ia-1], the chromatographic logP in series [3] was 1.99. In addition, the Wirkung in series [2] (500 g/ha) was determined as 100%.
As for `Cn1nc(C(F)(F)C(F)(F)F)c(C(F)(F)F)c1C(=O)Nc1ccc(Cl)c(C(=O)Nc2ccnc(Cl)c2)c1` [Ia-6], the chromatographic logP in series [3] was 3.37. The results for the Wirkung in series [5] (500 g/ha), in series [4] and in series [2] (500 g/ha) were 80%, 100% and 100%, respectively.
With `O=C(Nc1cccc(Cl)c1)c1cc(NC(=O)c2cnc(C(F)(F)C(F)(F)F)nc2C(F)(F)F)ccc1Cl` [Ia-32, N-{4-Chlor-3-[(3-chlorphenyl)carbamoyl]phenyl}-2-(pentafluorethyl)-4-(trifluormethyl)pyrimidin-5-carboxamid], the chromatographic logP in series [1] turned out to be 4.32. Moreover, the Wirkung in series [4] and in series [2] (500 g/ha) was 100% each time.
Turning to `Cn1nc(C(F)(F)C(F)(F)F)c(Br)c1C(=O)Nc1ccc(Cl)c(C(=O)Nc2ccc(Cl)cc2)c1` [Ia-38], in series [1], the chromatographic logP worked out at 4.43. The Wirkung in series [2] (500 g/ha) is reported as 80%.
Take `O=C(Nc1ccc(F)cc1)c1cc(NC(=O)c2cnc(C(F)(F)C(F)(F)F)nc2C2CC2)ccc1Cl` [Ia-24]: the chromatographic logP in series [1] amounted to 4.08. The Wirkung in series [4] and in series [2] (500 g/ha) was 100% throughout.
`O=C(Nc1ccc(F)cc1)c1cc(NC(=O)c2cnc(C(F)(F)C(F)(F)F)nc2C(F)F)ccc1Cl` [Ia-10] yielded a chromatographic logP in series [1] of 3.67. In addition, the Wirkung in series [2] (500 g/ha) is 100%.
For `O=C(Nc1ccc(Cl)c(C(=O)Nc2cccc(Cl)c2)c1)c1csc(C(F)(F)F)n1` [Ia-14], the chromatographic logP in series [1] amounted to 3.82.
`COc1ccc(NC(=O)c2cc(NC(=O)c3c(C(F)(F)F)c(C(F)(F)C(F)(F)F)nn3C)ccc2Cl)cc1` [Ia-12] had a chromatographic logP in series [3] of 3.68. Also, the Wirkung in series [4] is reported as 100%.
As for `O=C(Nc1cccc(Cl)c1)c1cc(NC(=O)c2cnc(C(F)(F)C(F)(F)F)nc2C(F)F)ccc1Cl` [Ia-25], in series [1], the chromatographic logP stood at 4.08. In addition, the Wirkung in series [4] and in series [2] (500 g/ha) was 100% throughout.
In the case of `Cn1nc(C(F)(F)C(F)(F)F)c(Br)c1C(=O)Nc1ccc(Cl)c(C(=O)Nc2ccc(Cl)cn2)c1` [Ia-35], the Wirkung came out at 80% in series [4] and 100% in series [2] (500 g/ha).
`Cn1nc(C(F)(F)C(F)(F)F)c(C(F)(F)F)c1C(=O)Nc1ccnc(C(=O)Nc2ccc(F)cc2)c1` [Ib-1, N-[2-(4-fluor-phenylcarbamoyl)pyrid-4-yl]-1-methyl-3-(pentafluorethyl)-4-(trifluormethyl)-1H-pyrazol-5-carbonsäureamid] gave a chromatographic logP in series [1] of 4.3.
